In brackets after ≈: the same amount, converted by molar mass. Several values for one entry are separate records, joined by “and”; a condition that tells them apart may be missing. Identical values can stand only once. Counter-ions that a name gives are not always drawn. Like-named read-outs stand apart in the source and are kept apart here.
Legend:
[1] = test system: Norwalk virus (replicon) GT1; assay: Norwalk virus replicon (GT1) in HG23, RNA hybridization; format: cell-based, Norwalk virus (human norovirus)
[2] = test system: MNV MNV-1; assay: Murine norovirus (MNV-1) antiviral screen in RAW267.4; format: cell-based; details: Neutral Red (Cytopathology), MNV-1, RAW267.4, Example 11
[3] = test system: HG23
[4] = test system: RAW267.4; assay: Toxicity in RAW267.4 cells (neutral red); details: Neutral Red (Toxicity), Example 11
[5] = test system: Dengue 2; assay: Dengue virus antiviral screen in HUH7; format: cell-based, dengue virus type 2; details: Dengue virus, Huh-7, New Guinea C, read-out: EC50
[6] = test system: Zika virus MR766; assay: Zika virus antiviral screen in HuH-7; format: cell-based; details: for EC50: Zika virus, read-out: EC50
[7] = in vitro; details: human, CC50
[8] = Phosphatidylcholine binding (thin-layer chromatographic run); details: words
[9] = test system: HIV-1 strain LAI; assay: HIV-1 replication reverse transcriptase (RT) assay in PBMC; format: cell-based, human immunodeficiency virus type 1; details: for EC90: Human immunodeficiency virus 1, read-out: Anti-HIV-1LAI activity EC90
[10] = test system: PBMC; details: human
[11] = test system: Vero; details: African green monkey
[12] = in vitro; details: human
[13] = in vitro; details: African green monkey
[14] = test system: CCRF-CEM; assay: Cytotoxicity on CCRF-CEM; details: read-out: Cytotoxicity CC50, CCRF-CEM
[15] = test system: Herpes simplex virus type 1 E-377; assay: Herpes simplex virus type 1 antiviral screen in primary HFF-1 (CellTiter-Glo); format: cell-based; details: Human alphaherpesvirus 1; E-377, Primary HFF-1, CellTiter-Glo
[16] = Cytotoxicity on primary human foreskin fibroblasts; details: human
[17] = test system: Vaccinia virus Copenhagen; assay: microbe, parasite or virus in culture; format: cell-based; details: Orthopoxvirus vaccinia, HFF-1
[18] = test system: Enterovirus D68 US/KY/14-18953; assay: Enterovirus D68 antiviral screen in RD; format: cell-based; details: Enterovirus D, US/KY/14-18953, RD, read-out: EC50
[19] = Cytotoxicity on RD host cells; format: cell-based; details: human, RD cells, Enterovirus D68 screen, read-out: CC50
[20] = test system: Hepatitis B virus (HBV) ayw; assay: Hepatitis B virus replication in HepAD38 (32P dot blot); format: cell-based; details: Hepatitis B virus
[21] = test system: Hepatitis C virus (replicon) clone B (genotype 1a); assay: HCV genotype 1a HuH-7 clone B subgenomic replicon RNA replication; format: cell-based, human hepatitis C virus; details: Fixed: 10 μM, Clone B genotype 1a, HuH-7, Replicon
[22] = test system: cellular ribosomal RNA (rRNA) synthesis; assay: Cellular ribosomal RNA synthesis in HCV replicon cells (TaqMan RT-qPCR); format: cell-based; details: Fixed: 10 μM, Clone B genotype 1a, HuH-7, Replicon
[23] = test system: Tacaribe TRVL11573; assay: microbe, parasite or virus in culture; format: cell-based, Tacaribe virus
[24] = test system: Rift Valley fever MP-12; assay: microbe, parasite or virus in culture; format: cell-based, Rift Valley fever virus
[25] = test system: Respiratory syncytial type A A2 (VR-1540); assay: Respiratory syncytial virus type A antiviral screen in MA-104; format: cell-based; details: human respiratory syncytial virus, MA104, A2 (VR-1540), read-out: EC50
[26] = test system: swine-origin pandemic influenza A (H1N1) virus; assay: microbe, parasite or virus in culture; format: cell-based
[27] = in vitro; details: African green monkey; remark: listed apart in the source
[28] = Cytotoxicity on CCRF-CEM; details: human, CCRF-CEM cells (T-lymphoblastic acute T cell leukemia), Cytotoxicity CC50, CCRF-CEM
[29] = target: T1, cytosolic GRs (Homo sapiens, UniProt P04150); details: Peeters et al., 2008; cited from earlier work
T1 sequence (P04150 1-777): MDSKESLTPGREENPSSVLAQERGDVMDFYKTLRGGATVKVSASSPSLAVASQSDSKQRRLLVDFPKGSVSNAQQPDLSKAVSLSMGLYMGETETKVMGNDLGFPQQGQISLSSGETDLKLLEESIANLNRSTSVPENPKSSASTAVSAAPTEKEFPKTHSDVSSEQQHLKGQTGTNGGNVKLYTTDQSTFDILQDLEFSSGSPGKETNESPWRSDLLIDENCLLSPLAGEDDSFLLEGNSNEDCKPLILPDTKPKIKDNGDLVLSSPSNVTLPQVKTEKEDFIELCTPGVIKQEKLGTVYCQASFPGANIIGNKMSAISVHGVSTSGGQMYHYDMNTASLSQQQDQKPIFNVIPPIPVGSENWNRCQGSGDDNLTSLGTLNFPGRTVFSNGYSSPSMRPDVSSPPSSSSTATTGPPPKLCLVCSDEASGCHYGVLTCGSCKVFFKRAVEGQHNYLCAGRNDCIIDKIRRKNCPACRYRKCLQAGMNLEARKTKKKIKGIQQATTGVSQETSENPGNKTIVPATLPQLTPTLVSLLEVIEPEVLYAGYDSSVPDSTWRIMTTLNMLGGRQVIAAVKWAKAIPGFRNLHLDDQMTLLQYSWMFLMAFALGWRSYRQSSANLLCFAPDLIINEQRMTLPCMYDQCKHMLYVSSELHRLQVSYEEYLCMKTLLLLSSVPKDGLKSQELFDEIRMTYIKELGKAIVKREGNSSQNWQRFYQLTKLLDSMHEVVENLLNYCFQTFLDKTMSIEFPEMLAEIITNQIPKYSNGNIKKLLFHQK

[30] = target: cytosolic progesterone receptors (PR) (Homo sapiens, UniProt P06401); details: Peeters et al., 2008; cited from earlier work
Chain of cytosolic progesterone receptors (PR) (P06401 whole entry): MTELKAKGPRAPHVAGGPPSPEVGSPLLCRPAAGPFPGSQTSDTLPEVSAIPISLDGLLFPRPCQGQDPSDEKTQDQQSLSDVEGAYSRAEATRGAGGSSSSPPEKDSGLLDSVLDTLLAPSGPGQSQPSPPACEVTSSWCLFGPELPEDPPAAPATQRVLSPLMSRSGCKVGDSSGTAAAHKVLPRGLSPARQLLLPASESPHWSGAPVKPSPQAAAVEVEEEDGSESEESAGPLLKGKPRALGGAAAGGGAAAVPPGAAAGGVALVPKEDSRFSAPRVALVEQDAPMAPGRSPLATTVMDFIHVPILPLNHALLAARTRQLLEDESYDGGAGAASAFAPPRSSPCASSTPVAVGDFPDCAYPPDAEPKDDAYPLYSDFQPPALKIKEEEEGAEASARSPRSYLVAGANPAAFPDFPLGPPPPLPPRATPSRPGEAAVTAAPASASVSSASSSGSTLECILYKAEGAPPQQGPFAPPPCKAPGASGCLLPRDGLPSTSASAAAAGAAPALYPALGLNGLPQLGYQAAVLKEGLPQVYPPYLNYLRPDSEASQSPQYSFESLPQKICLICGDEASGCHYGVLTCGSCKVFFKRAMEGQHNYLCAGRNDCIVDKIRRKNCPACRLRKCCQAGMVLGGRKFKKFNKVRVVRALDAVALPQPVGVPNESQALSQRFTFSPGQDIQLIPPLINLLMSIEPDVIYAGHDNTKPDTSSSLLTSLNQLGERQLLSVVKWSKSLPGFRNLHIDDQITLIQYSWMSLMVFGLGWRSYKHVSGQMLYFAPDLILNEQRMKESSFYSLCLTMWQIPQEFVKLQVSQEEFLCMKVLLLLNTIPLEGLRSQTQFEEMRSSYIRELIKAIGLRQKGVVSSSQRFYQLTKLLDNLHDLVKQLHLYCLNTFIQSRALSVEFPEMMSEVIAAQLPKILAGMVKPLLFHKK

[31] = rats, twice daily 1-2 mg kg−1 po; cited from earlier work
[32] = cited from earlier work
[33] = test system: Poliovirus type 3 WM-3; assay: microbe, parasite or virus in culture; format: cell-based; details: Enterovirus C, Vero 76
[34] = test system: Enterovirus 71 Tainan/4643/98; assay: microbe, parasite or virus in culture; format: cell-based; details: Enterovirus A, Vero 76
[35] = test system: Vero 76; details: African green monkey

Structure (SMILES): CC#CC1(O)CCC2C3CCC4=CC(=NNC(=S)Nc5ccccc5)CCC4=C3C(c3ccc4c(c3)OCO4)CC21C.CC#CC1(O)CCC2C3CCC4=CC(=O)CCC4=C3C(c3ccc4c(c3)OCO4)CC21C (mixture of isomers) [PT156, 1/17(11β,17β)-17-Hydroxy-11-[3,4-(methylenedioxy)phenyl]-17-(1-propyn-1-yl)estra-4,9-dien-3-one (ORG34517)×(2EZ)-2-{(11β,17β)-17-hydroxy-11-[3,4-(methylenedioxy)phenyl]-17-(1-propyn-1-yl)estra-4,9-dien-3-ylidene}-N-phenylhydrazinecarbothioamide [74.1% (E), 25.9% (Z)] 11/17hydrate]
- EC90 ([1]; RNA Hybridization (Replicon), NV GT1, HG23, Example 10): > 100 µM
- EC50 ([1]; RNA Hybridization (Replicon), NV GT1, HG23, Example 10, unit from Conc. Range): > 100 µM
- EC90 [2]: 0.29 µM
- EC50 ([2]; unit from Conc. Range): 0.091 µM
- CC50 [3]: > 100 µM
- CC50 [4]: 33 µM

Structure (SMILES): O=c1cnn([C@@H]2O[C@H](CO)[C@@H](O)[C@H]2O)c(=O)[nH]1 [6-azauridine, reference compound]
- EC50 ([5]; HuH-7, Neutral red): 4.6 µg/mL (≈ 18.8 µM)
- EC50 ([5]; HuH-7, Visual): 2.8 µg/mL (≈ 11.4 µM)
- EC90 ([6]; Huh-7, Visual (Virus yield reduction), Zika virus MR766, HUH7, Example 9, unit from Conc. Range, read-out: EC90): 0.89 µg/mL (≈ 3.63 µM)
- EC50 ([6]; Huh-7, MR766, HuH-7, Neutral red): 11 µg/mL
- EC50 ([6]; Huh-7, MR766, HuH-7, Visual): 3.2 µg/mL
- EC50 ([6]; Huh-7, Neutral Red (Cytopathic effect/Toxicity), Zika virus MR766, HUH7, Example 9): 4.1 µg/mL
- EC50 ([6]; Huh-7, Zika virus MR766, HuH-7, Table 10): 13.1 µM
- CC50 [7]: > 408 µM

Structure (SMILES): CC#C[C@]1(O)CC[C@H]2[C@@H]3CCC4=C/C(=N/NC(N)=S)CCC4=C3[C@@H](c3ccc4c(c3)OCO4)C[C@@]21C [(E)-ORG34517 thiosemicarbazone]
- binding to PC [8]: Weak (stereospecific!) binding to PC

Structure (SMILES): Cc1cn([C@H]2C[C@H](N=[N+]=[N-])[C@@H](CO)O2)c(=O)[nH]c1=O [AZT, 3′-azido-3′-deoxythymidine, reference compound]
- EC50 ([9]; Human immunodeficiency virus 1, PBMC, LAI, PBMC, RT 3H-dTTP, read-out: EC50): 0.00079 µM
- EC90 ([9]; in PBMC): 0.0299 µM
- EC50 ([9]; in PBMC, listed as zidovudine (AZT), read-out: Anti-HIV-1LAI activity EC50): 0.0044 ± 0.0039 µM
- CC50 [10]: > 100 µM
- CC50 [11]: 39.5 µM
- CC50 [12]: > 100 µM
- CC50 ([13]; Cytotoxicity CC50): 56 µM
- CC50 [14]: 14.3 µM
- CC50 ([14]; listed as zidovudine (AZT)): 56.1 µM

Structure (SMILES): Nc1nc2c(ncn2COCCO)c(=O)[nH]1 [Aciclovir]
- EC50 [15]: 3.85 µM
- CC50 ([16]; primary human foreskin fibroblasts (HFF-1), CC50, Herpes simplex virus type 1 screen, Primary HFF-1, CellTiter-Glo): > 150 µM

Structure (SMILES): Nc1ccn(C[C@@H](CO)OCP(=O)(O)O)c(=O)n1 [Cidofovir]
- EC50 [17]: 7.34 µM
- CC50 ([16]; primary HFF-1 human foreskin fibroblasts, CC50): > 150 µM

Structure (SMILES): CC(C)S(=O)(=O)n1c(N)nc2ccc(/C(=N/O)c3ccccc3)cc21 [Enviroxime]
- EC50 ([18]; Neutral red): 0.1 µg/mL (≈ 0.279 µM)
- EC50 ([18]; Visual): < 0.1 µg/mL
- CC50 ([19]; Neutral red): 25 µg/mL (≈ 69.7 µM)
- CC50 ([19]; Visual): 32 µg/mL (≈ 89.3 µM)

Structure (SMILES): Nc1ccn([C@@H]2CS[C@H](CO)O2)c(=O)n1 [Lamivudine]
- EC50 [20]: 0.03 µM

Structure (SMILES): C[C@@]1(O)[C@H](O)[C@@H](CO)O[C@H]1n1ccc(N)nc1=O [RS-446]
- % Inhib replication [21]: 98.08%
- EC50 ([1]; Norovirus/1968/US, HG23, Replicon): 6.9 µM
- % Inhib rRNA(tox) [22]: 31.09%

Structure (SMILES): NC(=O)c1ncn([C@@H]2O[C@H](CO)[C@@H](O)[C@H]2O)n1 [Ribavirin]
- EC50 [23]: 7 µg/mL (≈ 28.7 µM)
- EC50 ([23]; Mammarenavirus tacaribeense, Vero): 7.9 µg/mL (≈ 32.3 µM)
- EC50 [24]: 8.3 µg/mL (≈ 34 µM)
- EC50 ([24]; Rift Valley fever virus, Vero 76): 9.7 µg/mL (≈ 39.7 µM)
- EC50 ([25]; MA-104, Neutral red): 6.8 µg/mL (≈ 27.8 µM)
- EC50 ([25]; MA-104, Visual): 6.7 µg/mL (≈ 27.4 µM)
- EC50 [26]: 13 µg/mL (≈ 53.2 µM)
- EC50 ([26]; Influenza A virus, H1N1, MDCK): 14 µg/mL (≈ 57.3 µM)
- CC50 ([13]; CC50): > 1000 µg/mL
- CC50 [27]: > 1000 µg/mL

Structure (SMILES): Nc1ccn([C@@H]2O[C@H](CO)[C@@H](O)[C@H]2O)c(=O)[n+]1[C-2][n+]1c(N)ccn([C@@H]2O[C@H](CO)[C@@H](O)[C@H]2O)c1=O [TCY-1, Bis(cytidin-3-ium-3-yl)methanediide monohydrochloride×1.25H2O]
- EC50 ([9]; Human immunodeficiency virus 1, PBMC, in PBMC, read-out: Anti-HIV-1LAI activity EC50): 0.29 µM
- EC90 ([9]; in PBMC): 1 µM
- CC50 [12]: > 100 µM
- CC50 ([13]; Cytotoxicity CC50): > 100 µM
- CC50 [28]: > 100 µM

Structure (SMILES): CC#C[C@]1(O)CC[C@H]2[C@@H]3CCC4=CC(=O)CCC4=C3[C@@H](c3ccc(N(C)C)cc3)C[C@@]21C [mifepristone, reference compound]
- bound to cytosolic GRs, value [29]: 193%
- value for the cytosolic progesterone receptors (PR) [30]: 36%
- embryos lost [31]: ~100%
- responding ([32]; glucose intolerant group): 60%
- responding ([32]; hypertensive group): 43%

Structure (SMILES): CCOC(=O)c1ccc(OCCC2CCN(c3ccc(C)nn3)CC2)cc1 [pirodavir, reference compound]
- EC50 [33]: 0.97 µM
- EC90 [33]: 0.14 µg/mL (≈ 0.379 µM)
- EC50 [34]: 0.097 µM
- EC90 [34]: 0.23 µg/mL (≈ 0.623 µM)
- CC50 [35]: 7.8 µg/mL (≈ 21.1 µM)
- CC50 [27]: > 27 µM and > 10 µg/mL
